Counter-ions that a name gives are not always drawn.
Molecular target: T1, phospholipase A₂ isolated from rat perotoneum (Rattus norvegicus, UniProt P14423)
T1 construct: Enzyme-containing exudate was aspirated through an abdominal incision; Separation of the enzyme from the exudate was accomplished by centrifugation; from tissue; host or cells: peritoneal exudate of casein-injected male Wistar rats
T1 sequence (P14423 22-146): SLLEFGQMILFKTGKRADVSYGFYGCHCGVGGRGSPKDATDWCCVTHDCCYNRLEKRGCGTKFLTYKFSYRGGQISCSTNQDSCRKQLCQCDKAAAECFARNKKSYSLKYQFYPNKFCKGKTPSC
Experiment: phospholipase A₂ inhibition, spectrophotometric assay with Thio Pc Substrate (modified Hendrickson et al. procedure)
Assay type: biochemical
Conditions: for inhibition at 100 µM: @ 1.0̸ x 10̸⁻⁴M, read-out: % PLA₂ Inhibition; for IC50: concentration of inhibitor which reduces enzymatic activity by 50̸%, printed in the column % PLA₂ Inhibition
Description: The substrate employed in the modified assay, was 1,2-bis(decanoylthio)-1,2-­dideoxyglycerol-3-phosphocholine (hereinafter "Thio Pc Substrate"). The enzyme utilized in the procedure was phospholipase A₂ isolated from rat perotoneum as follows:
Male Wistar rats weighing 200-300 g a piece were injected interperitoneally at a dosage of 50 ml/kg of body weight (20 g of casein as the sodium salt diluted to 500 ml in distilled water). After a period of 18-24 hours the animals were sacrificed. Thereafter, each animal was injected interperitoneally with 30 ml of an isotonic salt solution to which sodium heparin was added prior to use at a concentration of 5 units/ml. Enzyme-containing exudate was aspirated through an abdominal incision. Separation of the enzyme from the exudate was accomplished by centrifugation.
Pursuant to the assay procedure, Thio Pc Substrate was apportioned into 1.25 mg aliquots. To each aliquot was added 4 ml of 160 mM tris hydrogen chloride buffer (pH 7.5) containing 2mM of calcium chloride and 2mM of sodium taurocholate. The resulting dispersions were vortexed at room temperature to clear solutions. Inhibition activity of the alkylphospholipids of this invention was determined utilizing spectrophotometric samples prepared by the addition of 5 µl of 4,4′-dithiopyridine and 395 ml of buffered Thio Pc substrate to a perincubated dispersion of 50 µl of alkylphospholipid (appropriately diluted in buffer) in 50 µl of enzyme (appropriately diluted in buffer). Absorbence at (0.5 full scale ) was recorded at a chart speed of 2 cm/min on a Gilford Model 250 Spectrophotometer.
The percentage of phospholipase A₂ inhibition was calculated by means of the following formula: [formula] wherein "inhibitor slope" is the slope of the spectrophotometric curve obtained for a given alkylphospholipid-containing sample and 'control slope" is the slope of the spectrophotometric curve obtained for an otherwise identical sample lacking an inhibitor.

| SMILES | inhibition at 100 µM [%] | IC50 [µM] |
| --- | --- | --- |
| CCCCCCCCCCCCCCCC(O)CCCOP(=O)([O-])OCC[N+](C)(C)C (centres unmarked) [4,9-Dihydroxy-N,N,N-trimethyl-3,5-dioxa-4-phosphatetracosan-1-aminium, hydroxide, inner salt sesquihydrate] | 45.6 | – |
| CCCCCCCCCCCCCCCCC(O)CCCOP(=O)([O-])OCC[N+](C)(C)C (centres unmarked) [4,9-Dihydroxy-N,N,N-trimethyl-3,5-dioxa-4-phosphopentacosan-1-aminium, 4-oxide, hydroxide, inner salt monohydrate] | – | 95 |
| CCCCCCCCCCCCCCCCCC(CCCOP(=O)([O-])OCC[N+](C)(C)C)OCc1ccccc1 (centres unmarked) [4-Hydroxy-N,N,N-trimethyl-9-phenylmethoxy-3,5-dioxa-4-phosphahexacosan-1-aminium, 4-oxide, hydroxide, inner salt monohydrate] | – | 84 |
| CCCCCCCCCCCCCCCC(CCCOP(=O)([O-])OCC[N+](C)(C)C)OCc1ccccc1 (centres unmarked) [4-Hydroxy-N,N,N-trimethyl-9-phenylmethoxy-3,5-dioxa-4-phosphatetracosan-1-aminium, 4-oxide, hydroxide, inner salt monohydrate] | 41.8 | – |
| CCN(CC)CCCC(C)Nc1c2ccc(Cl)cc2nc2ccc(OC)cc12 (centres unmarked) [Quinacrine, reference compound] | – | 31 |

— patent publication EP0300397A2, “Hydroxy-, Alkoxy- and Benzyloxy substituted phospholipids, a process for their preparation and their use as medicaments” (HOECHST-ROUSSEL PHARMACEUTICALS INCORPORATED, priority 1987, dated 1989)
